Biological target: T1, recombinant autotaxin (Homo sapiens, UniProt Q13822)
T1 construct: made in house; host or cells: Hi5 insect cells (baculovirus)
Test: Autotaxin test (enzyme test), Amplex Red
Format: biochemical
Conditions: Autotaxin inhibition (enzyme test), TABLE 1 (A compounds); substrate LPC 75 μM
Method: The autotaxin activity is measured indirectly using Amplex Red reagent. Amplex Red is measured here as fluorogenic indicator for the H2O2 formed. In detail, autotaxin converts the substrate lysophosphatidylcholine (LPC) into phosphocholine and lysophosphatidylic acid (LPA). After this reaction, the phosphocholine is reacted with alkaline phosphatase to give inorganic phosphate and choline. In the next step, choline is oxidised by choline oxidase to give betaine, with formation of H2O2. H2O2 reacts with Amplex Red reagent in the presence of peroxidase (horseradish peroxidase) in a 1:1 stoichiometry and forms the highly fluorescent resorufin. The fluorescence is measured in a reaction-dependent kinetic mode in order that fluorescent signals from possible other fluorescent substances which are not involved in the reaction can be corrected out.
1.5 μl of a standard solution or of the test substances (substances with the name A(n))in individual concentrations dissolved in 20 mM Hepes pH 7.2 with a maximum of 7.7% of DMSO are pre-incubated together with 10 μl (16 ng) of highly purified recombinant autotaxin in a black microtitre plate provided with 384 wells at 22° C. for 30 min. The reaction is then initiated by addition of 5 μl of L-α-lysophosphatidylcholine (LPC), where the final concentration of LPC is 75 μM. The mixture is incubated at 37° C. for 90 min. After the incubation, Amplex Red reagent, peroxidase (horseradish peroxidase) and choline oxidase is added, and the fluorescence is immediately measured at 612 nm with excitation of 485 nm in a “Tecan Ultra multimode” reader. The activity of autotaxin is calculated indirectly via detection of the H2O2 formed.
• Microtitre plate: PS microplate, 384 wells, small volume, black Corning, Cat#3677 • Protein: recombinant autotaxin (Baculovirale Hi5 Expression) • Substrate: L-α-lysophosphatidylcholine (chicken egg)); Avanti Polar Lipids # 830071 P • Standard: C14 LPA, Avanti Polar Lipids, Cat# 857120P • Detection reagent: Amplex Red reagent; Invitrogen # A12222; dissolved in 1.923 ml of DMSO peroxidase type VI-A (horseradish) from Sigma # P6782; dissolved in 7.45 ml of test buffer, choline oxidase; Sigma # C5896; dissolved in 2.47 ml of test buffer • Detection reagent mix: 1:100 dilution of Amplex Red reagent in test buffer • Test buffer: 200 mM Tris HCl, Merck, Cat # 1.08219, pH 7.9, 0.1% of BSA, lipid-free, Roche Cat#775835

IC50 [nM] | SMILES
100 to 1000 | O=C(CN1CCc2nc3ccccc3c(C(=O)N3CCN(CCO)CC3)c2C1)Nc1cc(Cl)ccc1OCCO [Compound A61, N-[5-Chloro-2-(2-hydroxyethoxy)phenyl]-2-{10-[4-(2-hydroxyethyl)-piperazine-1-carbonyl]-3,4-dihydro-1H-benzo[b][1,6]naphthyridin-2-yl}-acetamide]
< 100 | CCCN1CCN(C(=O)c2c3c(nc4ccccc24)CCN(CC(=O)Nc2cc(Cl)ccc2OC)C3)CC1 [Compound A29, N-(5-Chloro-2-methoxyphenyl)-2-[10-(4-propylpiperazine-1-carbonyl)-3,4-dihydro-1H-benzo[b][1,6]naphthyridin-2-yl]acetamide]
100 to 1000 | COc1ccc(Cl)cc1NC(=O)CN1CCc2nc3c(Br)cccc3c(C(=O)N3CCOCC3)c2C1 [Compound A40, 2-[6-Bromo-10-(morpholine-4-carbonyl)-3,4-dihydro-1H-benzo[b][1,6]naphthyridin-2-yl]-N-(5-chloro-2-methoxyphenyl)acetamide]
> 1000 | CN1CCN(C(=O)c2c3c(nc4ccccc24)CCN(C(=O)CCc2ccc(Cl)cc2Cl)C3)CC1 [Compound A31, 3-(2,4-dichlorophenyl)-1-[10-(4-methylpiperazine-1-carbonyl)-3,4-dihydro-1H-benzo[b][1,6]naphthyridin-2-yl]propan-1-one]
100 to 1000 | O=C(CN1CCc2nc3ccccc3c(C(=O)N3CCN(CCO)CC3)c2C1)Nc1cc(Cl)ccc1Cl [Compound A75, N-(2,5-Dichlorophenyl)-2-{10-[4-(2-hydroxyethyl)piperazine-1-carbonyl]-3,4-dihydro-1H-benzo[b][1,6]naphthyridin-2-yl}acetamide]
100 to 1000 | COc1ccc(Cl)cc1NC(=O)CN1CCc2nc3cc(Cl)ccc3c(C(=O)N3CCOCC3)c2C1 [Compound A15, N-(5-Chloro-2-methoxyphenyl)-2-[7-chloro-10-(morpholine-4-carbonyl)-3,4-dihydro-1H-benzo[b][1,6]naphthyridin-2-yl]acetamide]
100 to 1000 | COc1ccc(Cl)cc1NC(=O)CN1CCc2nc3cc(Br)ccc3c(C(=O)N3CCOCC3)c2C1 [Compound A42, 2-[7-Bromo-10-(morpholine-4-carbonyl)-3,4-dihydro-1H-benzo[b][1,6]-naphthyridin-2-yl]-N-(5-chloro-2-methoxyphenyl)acetamide]

Same assay, conditions: Autotaxin inhibition (enzyme test), TABLE 2 (B compounds); substrate LPC 75 μM

IC50 [nM] | SMILES
> 1000 | CN1CCC(NC(=O)c2c3c(nc4ccccc24)CCN(Cc2ccc4c(Cl)cc(Cl)c(O)c4n2)C3)CC1 [Compound B57, N-(1-Methylpiperidin-4-yl)-2-(5,7-dichloro-8-hydroxyquinolin-2-ylmethyl)-1,2,3,4-tetrahydrobenzo[b][1,6]naphthyridine-10-carboxamide]
> 1000 | O=C(CN1CCc2nc3ccccc3c(C(=O)N3CCN(CCO)CC3)c2C1)Nc1cc(Cl)ccc1OC(F)(F)F [Compound B4, N-(5-Chloro-2-trifluoromethoxyphenyl)-2-{10-[4-(2-hydroxyethyl)piperazine-1-carbonyl]-3,4-dihydro-1H-benzo[b][1,6]naphthyridin-2-yl}acetamide]
> 1000 | O=C(c1c2c(nc3ccccc13)CCN(Cc1ccnc(Cl)c1)C2)N1CCOCC1 [Compound B52, [2-(2-Chloropyridin-4-ylmethyl)-1,2,3,4-tetrahydrobenzo[b][1,6]naphthyridin-10-yl]morpholin-4-ylmethanone]
100 to 1000 | COc1ccc(Cl)cc1NC(=O)CN1CCc2nc3ccccc3c(C(=O)NC3CCCNC3=O)c2C1 (centres unmarked) [Compound B47, N-(2-Oxopiperidin-3-yl)-2-[(5-chloro-2-methoxyphenylcarbamoyl)methyl]-1,2,3,4-tetrahydrobenzo[b][1,6]naphthyridine-10-carboxamide]
